From article PMC4113265 (Journal of Natural Products, 2014)

Columns and labels:
MIA PaCa-2 cells = test: MTT antiproliferation/cytotoxicity assay; format: cell-based, human; details: MIA PaCa-2, MTT, concentration-response curves (Figure 2A)
[1] = cited from earlier work
[2] = freshly prepared rat serum; cited from earlier work

Substance	potency relative to 1 in MIA PaCa-2 cells (MIA PaCa-2 cells)	half-life (t1/2) in whole blood [1]	half-life (t1/2) in serum [2]
apicidin	significantly less active than 1		
trapoxin A	comparable potency to 1		
chlamydocin		0.68 to 3.6 min	8.7 min
